The source of these data is PMC5118696, “Identification of inhibitors that dually target the new permeability pathway and dihydroorotate dehydrogenase in the blood stage of Plasmodium falciparum” (Scientific Reports, 2016).

Read-outs that look alike come from different tables or passages of the source.

Assay [1] deals with Hyp1-NLuc Plasmodium falciparum-infected erythrocytes (new permeability pathway, NPP). Nature of the assay: microbe, parasite or virus in culture. The conditions noted are these: Erythrocyte, 0.33 h, read-out: Mean RLU at 28 min (As % of DMSO control).
The test system is the same in assay [2]. Nature of the assay: microbe, parasite or virus in culture. The note with it: Erythrocyte, 0.33 h, read-out: % of control remaining.

Take `CCOc1ccc(-c2nc(NC(=O)c3cccc(S(C)(=O)=O)c3)sc2C)cc1` [MMV665913]: the activity at 2 µM in assay [1] came to 98.8%; in assay [2], 106%.
As to `COc1ccccc1N1CCN(C(CNS(=O)(=O)c2ccc(Cl)cc2)c2cccnc2)CC1` (stereo not shown) [MMV665914], the figures for the activity at 2 µM in assay [1] and in assay [2] were 102% and 97.5%, respectively.
For `COc1ccc(-c2nc(NC(=O)CS(=O)(=O)c3ccc(F)cc3)sc2C)cc1` [MMV665915] the same measures were 101% and 98.3%.
The matching figures for `COc1ccccc1CNC(=O)CCn1c(=O)[nH]c2ccccc2c1=O` [MMV665916]: 98.8% and 98.4%.
The matching figures for `O=C(Nc1ccc(Cl)cc1)N1CCN(c2ccc3nncn3n2)CC1` [MMV665917]: 53.8% and 27.3%.
For `O=C(CSc1ccc2nnc(-c3cccc(F)c3)n2n1)Nc1ccc2c(c1)OCO2` [MMV665918], the activity at 2 µM turned out to be 106% in assay [1] and 121% in assay [2].
For `N=c1c2ccccc2nnn1-c1cccc(C(F)(F)F)c1` [MMV665923] the same measures were 94.3% and 89.5%.
The matching figures for `COc1ccc(C(=O)C2CC2c2ccc(Cl)cc2)cc1` (stereo not shown) [MMV665924]: 100% and 103%.
For `O=C(CCl)NCCOc1ccc(Cl)cc1Cl` [MMV665927] the same measures were 98.1% and 86.2%.
In the case of `CCC(C)NCC(O)(c1ccc(Cl)cc1)c1ccc(Cl)cc1` (stereo not shown) [MMV665928], the activity at 2 µM in assay [1] was 106%; in assay [2], 121%.
For the compound `CCCCNCC(O)(c1ccc(Cl)cc1)c1ccc(Cl)cc1` [MMV665929], the activity at 2 µM in assay [1] came out at 107%; in assay [2], 122%.
The matching figures for `O=C1c2ccccc2-c2nnc(-c3ccc(Br)cc3)cc21` [MMV665934]: 92.6% and 97.2%.
For the compound `FC(F)(F)c1ccc(Nc2nnnc3ccccc23)cc1` [MMV665935], the activity at 2 µM was 99.5% in assay [1] and 112% in assay [2].
The matching figures for `Cc1ccc(S(=O)(=O)c2c(COC(=O)c3cccc(C)c3)c(-c3ccccc3)nn2C)cc1` [MMV665936]: 97% and 100%.
For `O=C(Nc1ccsc1C(=O)NC1CCCCC1)c1ccc(F)cc1` [MMV665939] the same measures were 104% and 115%.
For the compound `CCOc1ccc(C=Cc2nc(=O)c3ccccc3o2)cc1` [MMV665940], the activity at 2 µM in assay [1] was 61.5%; in assay [2] it was 31.3%.
Turning to `CN(C)c1ccc(C(O)(c2ccc(N(C)C)cc2)c2ccc(N(C)C)cc2)cc1` [MMV665941], the figures for the activity at 2 µM in assay [1] and in assay [2] were 98.3% and 96.5%, respectively.
For `Nc1ccc(-c2nc3cc(Cc4ccc5[nH]c(-c6ccc(N)cc6)nc5c4)ccc3[nH]2)cc1` [MMV665943] the same measures were 64.3% and 51.7%.
The matching figures for `COc1ccc(CN2CCN(Cc3ccccc3)CC2)c(O)c1` [MMV665944]: 96.8% and 99.6%.
For `CC(C)=CCN1CCC(C(=O)Nc2ccc(-c3nc4ccccc4[nH]3)cc2)CC1` [MMV665946], the values for the activity at 2 µM in assay [1] and in assay [2] were 106% and 121%, respectively.
For `O=C(Nc1ccccc1O)c1ccc(-c2ccc(Cl)cc2Cl)o1` [MMV665948] the same measures were 105% and 120%.
For the compound `Oc1ccc(C(=C(Cl)Cl)c2ccc(O)cc2)cc1` [MMV665949], the activity at 2 µM in assay [1] turned out to be 90%; in assay [2], 95.5%.
`O=C(Nc1ccc(F)c(Cl)c1)Nc1ccc(Cl)c(Cl)c1` [MMV665953]: the figures for the activity at 2 µM in assay [1] and in assay [2] were 108% and 125%, respectively.
The matching figures for `O=C(NCC1Cc2cccc(-c3ccncc3)c2O1)c1csc2c1CCCC2` (stereo not shown) [MMV665954]: 104% and 117%.
For `CCN(CC)CCCNc1nc(-c2ccc(Cl)cc2)nc2ccccc12` [MMV665961] the same measures were 103% and 101%.
For `COc1cccc(C(=O)NC(c2ccc(C)cc2)c2cc(Cl)c3cccnc3c2O)c1` (stereo not shown) [MMV665969] the same measures were 101% and 106%.
With `CCOC(=O)C1=C(C)N=c2sc(=Cc3cc(Cl)ccc3O)c(=O)n2C1c1ccc(OC)cc1` (stereo not shown) [MMV665971], the activity at 2 µM in assay [1] came to 101%; in assay [2] it was 102%.
In the case of `O=C(Cc1ccccc1)NC(c1ccc(Cl)cc1)c1c(O)ccc2ccccc12` (stereo not shown) [MMV665972], the figures for the activity at 2 µM in assay [1] and in assay [2] were 68.8% and 69.4%, respectively.
For `CCOC(=O)c1cn(CC)c2cc(N(C)CCc3ccc(OC)c(OC)c3)c(F)cc2c1=O` [MMV665977] the same measures were 106% and 87.8%.
For `FC(F)(F)c1cccc(CNC2CCN(CCc3ccccc3)CC2)c1` [MMV665979] the same measures were 104% and 112%.
In the case of `OC1CCCCC1C1(NC(=S)Nc2ccccc2)CCCCC1` (stereo not shown) [MMV665980], the activity at 2 µM in assay [1] and in assay [2] was 101% in each case.
Regarding `CCCCCCc1cc(O)c2c3c(c(=O)oc2c1)CCC(C)C3` (stereo not shown) [MMV665987], the activity at 2 µM turned out to be 89.8% in assay [1] and 94.7% in assay [2].
The matching figures for `Cc1nc2ccccc2c(O)c1CC=C(Cl)Cl` [MMV665994]: 96.6% and 101%.
For `CN1c2ccccc2N(C)C1c1ccc2c(c1)OCO2` [MMV666009] the same measures were 104% and 114%.
Consider `Cc1ccc(OCCCCCCNCCO)c(C)c1` [MMV666020], for which the results for the activity at 2 µM in assay [1] and in assay [2] were 97% and 97.1%, respectively.
For `Cc1ccc(-c2cc3c(nn2)-c2ccccc2C3=O)cc1` [MMV666021], the activity at 2 µM in assay [1] came to 104%; in assay [2] it was 99.7%.
In the case of `COc1ccc(C(=O)NC(c2ccccc2Cl)c2cc(Cl)c3cccnc3c2O)cc1` (stereo not shown) [MMV666022], the activity at 2 µM in assay [1] was found to be 104%; in assay [2], 113%.
As to `c1ccc(Cn2c(N=Nc3c(Nc4ccccc4)ccc4ccccc34)nc3ccccc32)cc1` [MMV666023], the values for the activity at 2 µM in assay [1] and in assay [2] were 102% and 101%, respectively.
Consider `OC(Cn1nnc2ccccc21)Cn1c2ccc(Br)cc2c2cc(Br)ccc21` (stereo not shown) [MMV666025], for which the activity at 2 µM in assay [1] turned out to be 99.5%; in assay [2], 105%.
Take `COc1ccc(-c2cc3c(nn2)-c2ccccc2C3=O)cc1` [MMV666026]: the activity at 2 µM amounted to 98.8% in assay [1] and 108% in assay [2].
Take `COc1ccc(C(=O)NC(c2ccc(Cl)cc2Cl)c2cc(Cl)c3cccnc3c2O)cc1` (stereo not shown) [MMV666054]: the activity at 2 µM in assay [1] was found to be 101%; in assay [2], 106%.
The matching figures for `O=C(Nc1ccc(Cl)cc1C(=O)Nc1ccncc1)c1ccc(Cl)cc1Cl` [MMV666057]: 105% and 119%.
The matching figures for `COc1ccc(CN2CCCC(C(=O)c3ccc(C(F)(F)F)cc3)C2)c(O)c1` (stereo not shown) [MMV666060]: 103% and 114%.
Regarding `COc1cccc(O)c1CN1CCC2(CCCN(Cc3ccc(F)cc3)C2)C1` (stereo not shown) [MMV666061], the activity at 2 µM in assay [1] stood at 111%; in assay [2] it was 126%.
`Cc1ccc(N2C(=O)C3C(C2=O)C2(c4ccccc4)C(=O)C3(c3ccccc3)C(c3ccccc3)=C2c2ccccc2)cc1` (stereo not shown) [MMV666062]: the activity at 2 µM was determined as 106% in assay [1] and 97.6% in assay [2].
On to `COc1ccc(CNC2CCN(c3ccc(NC(=O)c4cccc(Cl)c4)cc3)CC2)cc1OC` [MMV666067], for which the activity at 2 µM came to 101% in assay [1] and 111% in assay [2].
The matching figures for `COc1ccc(CCN2CCC(CN(C)Cc3cnn(-c4ccccc4)c3)CC2)cc1` [MMV666069]: 102% and 105%.
With `O=C(NC1CCCC1)c1ccc(N2CCC(NCc3cccc(C(F)(F)F)c3)CC2)cc1` [MMV666070], the activity at 2 µM in assay [1] came to 111%; in assay [2], 123%.
The matching figures for `Cc1ccc(CN2CCC(C(=O)Nc3ccc(-c4cc5ccccc5[nH]4)cc3)CC2)o1` [MMV666071]: 94.8% and 101%.
As for `COCCNC(=O)c1ccc(OC2CCN(Cc3ccc(F)c(F)c3)CC2)c(Cl)c1` [MMV666072], the values for the activity at 2 µM in assay [1] and in assay [2] were 103% and 115%, respectively.
In the case of `COc1ccc(C2N(C)c3ccccc3N2C)cc1` [MMV666075], the activity at 2 µM in assay [1] was 109%; in assay [2], 123%.
Regarding `Cc1ccc2cc3c(N)c4c(C)ccc(C)c4nc3nc2c1` [MMV666079], the activity at 2 µM in assay [1] was 96%; in assay [2] it was 104%.
Consider `O=C(NC(c1ccccc1)c1ccc2cccnc2c1O)c1ccccc1` (stereo not shown) [MMV666080], for which the activity at 2 µM came to 104% in assay [1] and 114% in assay [2].
For the compound `CCCc1c(C)nc2ccccc2c1O` [MMV666081], the activity at 2 µM in assay [1] stood at 105%; in assay [2], 115%.
The matching figures for `CCCC(c1nnnn1C1CCCCC1)N1CCN(C(=O)c2ccco2)CC1` (stereo not shown) [MMV666093]: 104% and 113%.
For `CCCc1c(C)nc2ccc(Br)cc2c1O` [MMV666095] the same measures were 104% and 113%.
With `COc1ccc(C2=C(c3ccc(OC)cc3)C3(c4ccccc4)C(=O)C2(c2ccccc2)C2C(=O)N(c4ccc(C)cc4)C(=O)C23)cc1` (stereo not shown) [MMV666101], the figures for the activity at 2 µM in assay [1] and in assay [2] were 108% and 107%, respectively.
For `CN(C)c1ccc(-c2nc3cc(N)ccc3[nH]2)cc1` [MMV666102] the same measures were 98.7% and 90%.
The matching figures for `CCn1c(SCC(=O)Nc2cc(C(F)(F)F)ccc2Cl)nc2ccccc2c1=O` [MMV666103]: 100% and 113%.
